From patent US20100028259A1, “USE OF ORGANIC CATION TRANSPORTERS FOR CANCER DIAGNOSIS AND THERAPY” (The Regents of the University of California, priority 2006, published 2010)
Like-named read-outs stand apart in the source and are kept apart here.

Key:
SW620 = assay: MTT drug sensitivity, colon cancer cell line SW620; format: cell-based, human
Procedure: (§1) Cytotoxicity of the platinum-based compounds was measured by MTT (thiazolyl blue tetrazolium bromide) assay. Cells were seeded in 100 μl of the culture medium without any antibiotics in 96-well plates at a predetermined cell density. For HEK 293 cells, poly-D-lysine coated plates were used. […] For the OCT inhibitor studies, the inhibitors (i.e., disopyramide or cimetidine) were added to the medium at a specified concentration immediately before the addition of the platinum-based compounds. After incubation for a specified time period, the drug-containing medium was replaced with fresh, drug-free medium and the incubation was continued for a total of 72 hours (start from the addition of platinum-based compounds). Then, the MTT assay was performed similarly as described in Alley et al., Cancer Res., 48:589-601 (1988). […] The maximal cell growth was the cell growth in the medium without any platinum-based compounds; C is the concentration of the platinum-based compound, and γ is the slope factor.
(§2) The cell seeding density was 6,000-, 8,000-, 6,000-, 15,000-12,000- and 4,000 cells/well for HCT116, HT29, RKO, SW620, LS180, and DLD cells, respectively. When cimetidine (1.5 mM) was used, it was added to the wells immediately before the addition of the platinum-based drugs. The resistance factor (RF) was defined as the ratio of the mean IC50 value in the presence to that in the absence of cimetidine. Data are expressed as mean±SD from six measurements, and each measurement was performed in quadruplicate.

MDCK-MOCK cells [1] = assay: Cellular accumulation of platinum in MDCK-MOCK cells (ICP-MS); format: in vitro ADME, canine; conditions: 2-hr exposure
Procedure: (§3) For the inhibitor studies, the incubation medium also contained disopyramide (150 μM). […] For the inhibitor studies, the incubation medium also contained cimetidine (1.5 mM). […] After drug exposure, the cells were washed with ice-cold PBS three times and harvested by scraping and centrifugation. The cell-associated platinum was determined by ICP-MS and normalized for protein content. Data are expressed as mean±SD from a single experiment performed in triplicate. Experiments were replicated for OCT1 and OCT2, and similar results were obtained.
(§4) The cellular accumulation of platinum was determined as described in Holzer et al., Mol. Pharmacol., 66:817-823 (2004) with some modifications. Briefly, the cells were grown in 100 mm×20 mm dishes in the culture medium without any antibiotics to over 90% confluence. For HEK 293 cells, poly-D-lysine coated dishes were used. For platinum accumulation, the cells were incubated in the culture medium containing the indicated concentrations of the platinum compounds at 37° C. in 5% CO2 for 2 hr unless specified. After incubation, the dishes were immediately placed on ice and the cells were washed with 6 ml of ice-cold PBS for three times and collected with a rubber policeman. The cell pellets were obtained by centrifugation at 400×g and at 4° C. for 15 min. For the OCT inhibitor studies, the incubation medium also contained the indicated inhibitor (i.e., disopyramide or cimetidine) in addition to the platinum-based compounds. The resulting cell pellets were then dissolved into 200 μl of 70% nitric acid at 65° C. for at least 2.5 hours, and then distilled water containing 10 ppb of iridium (Sigma) and 0.1% Triton X-100 was added to the samples to dilute nitric acid to 7%. The platinum content was measured by inductively plasma coupled mass spectrometry (ICP-MS) in the Analytical Facility at the University of California at Santa Cruz (Santa Cruz, Calif.). Cell lysates from a set of identical cultures were used for BCA protein assay.

MDCK-MOCK cells [2] = assay: MTT drug sensitivity assay in MDCK-MOCK cells; format: cell-based, canine
Procedure: (§5) Cytotoxicity of the platinum-based compounds was measured by MTT (thiazolyl blue tetrazolium bromide) assay. Cells were seeded in 100 μl of the culture medium without any antibiotics in 96-well plates at a predetermined cell density. For HEK 293 cells, poly-D-lysine coated plates were used. After overnight incubation, the platinum-based compounds were then added to the culture medium to give the indicated final concentrations. For the OCT inhibitor studies, the inhibitors (i.e., disopyramide or cimetidine) were added to the medium at a specified concentration immediately before the addition of the platinum-based compounds. After incubation for a specified time period, the drug-containing medium was replaced with fresh, drug-free medium and the incubation was continued for a total of 72 hours (start from the addition of platinum-based compounds). Then, the MTT assay was performed similarly as described in Alley et al., Cancer Res., 48:589-601 (1988). […] The maximal cell growth was the cell growth in the medium without any platinum-based compounds; C is the concentration of the platinum-based compound, and γ is the slope factor.
(§6) Briefly, the cells were seeded in 96-well plates at a density of 5,000 cells/well for the transfected MDCK cells or 12,000 cells/well for the transfected HEK 293 cells. The platinum-based drugs were added on the following day. After the specified time periods of drug exposure, the drug-containing medium was replaced with fresh, drug-free medium, and the incubation was continued for a total of 72 hours (start from the time when the drug was added). After incubation, the cell growth was determined by an MTT assay. Data are expressed as mean±SD from 3 to 6 independent experiments with each performed in quadruplicate. The resistance factor (RF) was defined as the ratio of the mean IC50 value in the MOCK cells to that in the OCT-transfected cells.
Briefly, MDCK cells were seeded at a density of 5,000 cells/well in 96-well plates and exposed to the test compounds for 7 hours on the following day. After incubation for a total of 72 hours, the cell growth was determined by an MTT assay. The data for carboplatin was taken from Table 1 and was not determined simultaneously with the other compounds. The resistance factor (RF) was defined as the ratio of the mean IC50 value in MDCK-MOCK cells to that in MDCK-hOCT1 cells. Data are expressed as mean±SD from six measurements, and each measurement was performed in quadruplicate.

HEK-MOCK cells = assay: MTT drug sensitivity assay in HEK-MOCK cells (control of HEK-hOCT3); format: cell-based, human; conditions: Table 3
Procedure: as §5, §6

DLD = assay: MTT drug sensitivity, colon cancer cell line DLD; format: cell-based, human
Procedure: as §1, §2

MDCK-hOCT1 cells = assay: Cellular accumulation of platinum in MDCK-hOCT1 cells (ICP-MS); format: in vitro ADME, canine; conditions: 2-hr exposure
Procedure: as §3, §4

## O=C1[O][Pt]2([NH][C@@H]3CCCC[C@H]3[NH]2)[O]C1=O [oxaliplatin]
SW620; SW620, absence of cimetidine, read-out: IC50 Control
  IC50: 2.81 ± 1 µM
SW620; SW620, cimetidine 1.5 mM, read-out: IC50 Cimetidine-treated
  IC50: 14.2 ± 2.81 µM
MDCK-MOCK cells [1]; 3 μM, disopyramide 150 μM
  cellular platinum accumulation rate in MDCK-MOCK, disopyramide-treated: 3.23±0.31 pmol/mg protein-hour
MDCK-MOCK cells [1]; drug 3 μM
  cellular platinum accumulation rate in MDCK-MOCK: 2.94±0.11 pmol/mg protein-hr
MDCK-MOCK cells [2]; SAR study Table 4, 7 hours of drug exposure, read-out: IC50 MDCK-MOCK
  IC50: 10.9 ± 3.66 µM
MDCK-MOCK cells [2]; co-incubation with disopyramide 150 μM, read-out: IC50 in MDCK-MOCK, disopyramide-treated
  IC50: 32.2 ± 13 µM
MDCK-MOCK cells [2]; disopyramide study (FIG. 2D), without disopyramide, read-out: IC50 in MDCK-MOCK, control
  IC50: 30.4 ± 9.28 µM
MDCK-MOCK cells [2]; drug exposure 7 hour, MTT at 72 hours, Table 1, read-out: IC50 MDCK-MOCK
  IC50: 33 ± 9.12 µM
MDCK-MOCK cells [2]; drug exposure 24 hour, MTT at 72 hours, Table 1, read-out: IC50 MDCK-MOCK
  IC50: 14.3 ± 5.55 µM
MDCK-MOCK cells [2]; drug exposure 72 hour, Table 1, read-out: IC50 MDCK-MOCK
  IC50: 9.64 ± 1.85 µM
HEK-MOCK cells; drug exposure 7 hour
  IC50: 1.47 ± 0.28 µM
HEK-MOCK cells; drug exposure 24 hour
  IC50: 0.47 ± 0.05 µM
HEK-MOCK cells; drug exposure 72 hour
  IC50: 0.47 ± 0.12 µM
DLD; absence of cimetidine, read-out: IC50 Control
  IC50: 10.6 ± 5.99 µM
DLD; cimetidine 1.5 mM, read-out: IC50 Cimetidine-treated
  IC50: 71.3 ± 12.9 µM
MDCK-hOCT1 cells; 3 μM, disopyramide 150 μM
  cellular platinum accumulation rate in MDCK-hOCT1, disopyramide-treated: 4.04±0.04 pmol/mg protein-hr
MDCK-hOCT1 cells; drug 3 μM
  cellular platinum accumulation rate in MDCK-hOCT1: 8.53±0.52 pmol/mg protein-hr
MDCK-hOCT1 cells; disopyramide 150 μM
  effect of disopyramide on platinum accumulation rate in MDCK-hOCT1: two-fold decrease
